Measured values as given in article PMC5647257 (Bioorganic & medicinal chemistry letters, 2017).

Biological target: HIV-1 protease (Human immunodeficiency virus type 1 group M subtype B, UniProt P04585)
Assay: HIV-1 protease inhibitory potency, assay protocol of Toth and Marshall
Type: biochemical
Settings: compared with 13-membered inhibitors 5i and 5j

| Compound | fold reduction of enzyme inhibitory activity over inhibitors 5i and 5j |
| --- | --- |
| COc1ccc2c(c1)COC/C=C\CCCCCN(C[C@@H](O)[C@H](Cc1ccccc1)NC(=O)O[C@H]1CO[C@H]3OCC[C@H]31)S2(=O)=O [5k] | greater than 20 fold |
| COc1ccc2c(c1)COC/C=C/CCCCCN(C[C@@H](O)[C@H](Cc1ccccc1)NC(=O)O[C@H]1CO[C@H]3OCC[C@H]31)S2(=O)=O [5l] | greater than 20 fold |
